Laboratory results published in patent publication US20100184818A1, “PHOTOSENSITIZERS FOR TARGETED PHOTODYNAMIC THERAPY” (THE GENERAL HOSPITAL CORPORATION, priority 2007, published 2010).

Columns and labels:
[1] = Octanol-water distribution coefficient; assay type: physicochemical; settings: 1-octanol / DI water, absorbance at 330 nm
Procedure: Each compound was dissolved in a minimum amount of DMSO: CI1 (0.9 mg in 200 μl), CI2 (5.3 mg in 200 μl), CI3 (5.4 mg in 200 μl). Ten ml of DI water and 10 ml of 1-octanol were added in each compound and vigorously shaken for 2 min. and the vials of the compounds were settled down overnight. The phases were separated and UV-spectra of each phase were analyzed. Distribution coefficient of each compound was determined using absorbance of aqueous phases and organic phases at 330 nm.

[2] = Singlet oxygen 1270-nm luminescence and quantum yield; assay type: physicochemical; settings: for Singlet oxygen luminescence decay curve in organic solvent: CH3OD, 449 nm excitation; for Singlet oxygen decay curve when solvent changed to aqueous buffer: deuterated PBS versus CH3OD
Text: The sample in a 0.25 mm quartz cell was illuminated within the resonant cavity as described above. Singlet oxygen phosphorescence at 1270 nm was monitored by a nitrogen-cooled germanium detector (Model EO-817, North Coast Scientific Corp, Santa Rosa, Calif.). Photoexcitation of the sample studied was induced by a 5 ns 355 nm laser pulse from a Q-switched Nd:YAG laser (Continuum Surelite II, Santa Clara, Calif.) equipped with an optical parametric oscillator (Opotek, Carlsbad, Calif.). Sample in deuterated PBS (pD ˜6.9) or in deuterated methanol (CH3OD) was excited with 449 nm wavelength.

CT26 cells = test: PDT phototoxicity, MTT assay; assay type: cell-based, murine; settings: 2 μM, 80 J/cm2 of light
Procedure: When the cells reached 80% confluence, they were washed with PBS and harvested with 2 mL of 0.25% trypsin-EDTA solution (Sigma). Cells were then centrifuged and counted in trypan blue to ensure viability and plated at density of 5000/well in flat-bottom 96 well plates (Fisher Sci, Pittsburgh, Pa.). Cells were allowed 24 h to attach.
On the following day dilutions of the fullerenes were prepared in complete RPMI medium and added to the cells at […] for 24 h incubation as described. Prior to illumination the fullerene solution was removed and fresh complete medium was replaced and the illumination (150 mW/cm2 white light, 1-80 J/cm2) was performed. The light spot covered 9 wells which were considered as one experimental group. All wells in a group were illuminated at the same time. […]
Following PDT treatment the cells were returned to the incubator overnight and the phototoxicity was measured using a 4 h MTT assay read at 560 nm using a microplate spectrophotometer (Spectra Max 340 PC, Molecular Devices, Sunnyvale, Calif.). […]
Briefly cells were treated with PDT sufficient to kill 80% of cells (5 J/cm2 for J774, 20 J/cm2 for LLC and 80 J/cm2 for CT26). […] Samples were incubated in the dark for 1 h at 37° C. and fluorescence was measured (excitation 400 nm, emission 505 nm). The protein per sample was measured with bicinchoninic acid protein assay.

J774 cells = test: Intracellular reactive oxygen species, H2DCFDA probe fluorescence microscopy; assay type: cell-based, murine; settings: 5 μM BF4 for 24 h, then probe, 5 J/cm2 405 nm laser, compared with probe alone
Procedure: J774 cells were incubated with 5 μM BF4 for 24 h and on the next day 5 μg/ml of 5- (and -6)-chloromethyl-2′-7′-dichlorodihydrofluoresceine diacetate, (CMH2DCFDA, Molecular Probes, Invitrogen) in complete medium was added and incubated for 30 min at 37° C., then cells were washed with PBS and 5 J/cm2 of 405 nm laser light (Nichia Corp, Detroit, Mich.) was delivered. Five to 10 min later a Leica DMR confocal laser fluorescence microscope (Leica Mikroskopie and Systeme GmbH, Wetzler, Germany) with excitation by a 488 nm argon laser and emission with a 530 nm+/−10 nm bandpass filter, and a 63×1.20 water immersion lens was used to image the cells at a resolution of 1024×1024 pixels. Images were acquired using TCS NT software (Version 1.6.551, Leica Lasertechnik, Heidelberg, Germany).

| Compound | LogKow [1] | Octanol-water partition constant Kow [1] | Singlet oxygen luminescence decay curve in organic solvent [2] | Singlet oxygen quantum yield in O2 saturated D2O, higher than that found in air ([2]; O2 saturated D2O versus air saturated) | Singlet oxygen decay curve when solvent changed to aqueous buffer [2] | Singlet oxygen luminescence in aqueous buffer saturated with nitrogen ([2]; nitrogen saturated aqueous buffer) | Lethal dose of PDT (share of cells killed) (CT26 cells) [%] | Fluorescence of intracellular ROS probe after illumination (J774 cells) |
| --- | --- | --- | --- | --- | --- | --- | --- | --- |
| O=C(NC(CO)CO)C1(C(=O)NC(CO)CO)C2c3c4c5c6c3c3c(c7ccc8c9ccc%10c%11ccc%12c%13c(c%14c6c6c3c7c8c3c9c%10c(c%13%11)c%14c36)C5C%12C=C4)C21 (stereo not drawn) [NI1] | −1.61 | 0.025 | – | – | – | – | – | – |
| C[N+]1(C)Cc2c3c4c5c6c7c8c9c(c%10c8c8c(c%11c%12c(c%13c%14ccc%15c(c2C1)c4c1c%15c%14c2c%13c%11c8c7c2c61)C[N+](C)(C)C%12)C1C[N+](C)(C)CC%101)C=CC3C95.[I-].[I-].[I-] (stereo not drawn) [CI3] | −0.43 | 0.37 | very similar luminescence decay curves | about 50% | remained almost unchanged | luminescence disappeared | 60 | – |
| C[N+]1(C)Cc2c(c3c4ccc5c6c7c8c9c%10c%11c%12c%13c(c%14c%12c%12c(c2c2c%12c%11c9c(c4c58)c32)C2C[N+](C)(C)CC%142)C=CC2C%13C=%10C7C2C=C6)C1.[I-].[I-] (stereo not drawn) [CI2] | 0.11 | 1.28 | – | – | – | – | – | – |
| O=C(NC(CO)CO)C1(C(=O)NC(CO)CO)c2c1c1c3ccc4c5c6c7c(c8c9c7c7c%10c%11c%12c(ccc%13c2c2c1c1c3c4c6c7c1c%10c2c%12%13)C(C=C8)C9%11)C1C5C1(C(=O)NC(CO)CO)C(=O)NC(CO)CO (stereo not drawn) [NI2] | −1.49 | 0.032 | – | – | – | – | – | – |
| C[N+]1(C)CC2c3c4c5c6c3c3c(c7ccc8c9ccc%10c%11c%12c%13c%14c(c6c6c3c7c8c(c9c%10%13)c%146)=C3C5C(C=C4)C(C=C%11)C3%12)C2C1.[I-] (stereo not drawn) [CI1] | 2.15 | 140.80 | very similar luminescence decay curves | – | almost disappeared | – | 80 | large increase in fluorescence |
| Cc1cc2nc3c(=O)[nH]c(=O)nc-3n(C[C@H](O)[C@H](O)[C@H](O)CO)c2cc1C [riboflavin, Riboflavin, reference compound] | – | – | somewhat larger | – | remained almost unchanged | – | – | – |
